Results: patent US8518889B2, “Method of treating cancer with antibodies against long-form leukotriene B4 receptor BLT2” (Korea University Research & Business Foundation, priority 2007, dated 2013)

Columns and labels:
PWR-1E cells = test: cell counting with trypan blue; assay type: cell-based; conditions: 1 μM and 5 μM, serum free RPMI 1640
Experimental: The effect of LY255283 was observed by counting of cell number. The cells were grown in 6-well cluster dishes to 70% confluence with 10% FBS-supplemented medium. At day 0, the medium was replaced with serum free RPMI 1640 and cells were stimulated with DMSO or 1 μM and 5 μM LY255283. The cells were harvested at various intervals. Cells were washed with PBS and collected by brief trypsinization. Total cell number was determined by counting each sample in duplicate with a hemocytometer using trypan blue dye. The cells treated with LY255283 in serum free RPM11640 were harvested at various intervals. […] In contrast, PWR-1 E cells which expressed few level of BLT2 were not affected by LY255283.

253J-BV cells = test: cell cycle analysis (PI, flow cytometry); assay type: cell-based, human; conditions: 48 hr, RPMI 1640 with 0.5% FBS
Experimental: The cells grown in 6-well plate were stimulated with 5 μM and 10 μM LY255283, 1 μM U75302 for 48 h in RPMI 1640 containing 0.5% FBS. The cells which were collected by brief trypsinization were fixed overnight with 70% ethanol at 4° C. The cells were resuspended in PBS containing RNase A (100 μg/ml) and incubated for 30 min at 37° C. The cells were stained with propidium iodide (50 μg/ml) (Sigma). Acquisition and analysis was performed by FACS using Cell Quest Alias software (BD Bioscience). […] Cells were treated with BLT antagonist for 48 hours and the cell cycle population was measured by flow cytometry. In brief, cells were plated in 6 well plate and then treated with LY255283, U75302 for 48 hr. At the end of the treatment, the cells were harvested and then centrifuged. The cells fixed in ice-cold 70% ethanol for 24 hr and centrifuged. The pellet were resuspended in 0.5 ml phosphate-buffered saline (PBS) and incubated with Pl 1 mg/ml treatment for 15 min.

253J-BV cell line = test: Western blot of apoptotic proteins (PARP, Caspase-9, Bax); assay type: cell-based, human; conditions: 48 hr
Experimental: Cells were washed with cold PBS and cells were scraped into lysis buffer [20 mM Tris-HCl (pH 7.5), 15 OmM NaCl, 0.5% NP-40, 5 mM EDTA, 1% triton X-100 added protease inhibitors] at 4° C. Harvested protein samples were heated at 95° C. for 5 min and then subjected to SDS-PAGE on acrylamide gels, followed by transfer to polyvinylidene difluoride membranes for 90 min at 100 V. The membranes were blocked for 1 h with Tris-buffered saline (TBS) containing 0.05% (vol/vol) Tween 20 plus 5% (wt/vol) nonfat dry milk and then incubated with appropriate antibodies (PARP, 1:2000 dilution, Caspase-9, 1:2000 dilution, Bax 1:2000 dilution, actin, 1:3000 dilution) in 5% nonfat milk overnight at 4° C. Then membrane bound protein-antibody complex incubated for 2 hr with HRP-conjugated secondary antibody before development with an enhanced chemiluminescence kit (Amersham Biosciences, UK). The poly ADP-ribose polymerase (PARP) cleavage have been well established as important indices of apoptosis.

MDA-MB-468 cells [1] = test: DAPI staining, apoptotic cells; assay type: cell-based, human; conditions: 2, 5, 10 μM, 48 h
Experimental: Cells were grown on sterile coverslips at a density of 7×10^5 cells/plate in 35-mm plate. After 24 h, cells incubated in media containing serum-free for 3 h. Then, cells were treated with U75302 (0.5, 1 μM), LY255283 (5, 10 μM) and incubated at 37° C. for 48 h. Then, cells were fixed with 70% cold-ethanol for 30 min at room temperature, and then washed once with PBS. DAPI (50 ng/ml) was added to the fixed cells, incubated for 20 min at room temperature, and washed with PBS. Cells were mounted and examined by fluorescence microscopy. Apoptotic cells were identified by the condensation and fragmentation of their nuclei. The percentage of apoptotic cells was calculated as the ratio of apoptotic cells to total cells counted. A minimum of 500 cells were counted for each treatment.

MDA-MB-468 cells [2] = test: Western blotting of caspase-9 and PARP; assay type: cell-based, human; conditions: 48 hr
Experimental: Cells were plated a density of 2×10^6 cells/plate in 100-mm plate. After 24 h, cells incubated in media containing serum-free for 3 hr. Then, cells were treated with U75302 (0.5, 1 μM), LY255283 ([…]) and incubated at 37° C. for 48 hr. […] Proteins were separated by SDS-PAGE and transferred onto a nitrocellulose membrane. The membrane was blocked with 5% nonfat dry milk in Tris-buffered saline and then incubated with primary antibodies against caspase-9, PARP for 1 h at room temperature. Blots were developed with a peroxidase-conjugated secondary antibody and proteins were visualized by enhanced chemiluminescence (ECL) procedures (Amersham, USA) according to the manufacturer's recommendation

SMILES | number of PWR-1E cells (PWR-1E cells) | cell cycle (253J-BV cells) | pro-apoptotic protein Bax level (253J-BV cell line; 10 μM) | apoptosis induction (PARP cleavage) (253J-BV cell line) | pro-caspase 9 level (253J-BV cell line) | apoptosis (DAPI staining) (MDA-MB-468 cells [1]) | activation of caspase-9 and PARP cleavage (MDA-MB-468 cells [2]) | level of protein (Western blot) compared with control (253J-BV cell line)
CCc1cc(C(C)=O)c(O)cc1OCCCCCC(C)(C)c1nnn[nH]1 [LY255283, 1-[5-ethyl-2-hydroxy-4-[[6-methyl-6-(1H-tetrazol-5-yl)heptyl]oxy]phenyl]-ethanone] | not affected | arresting cell cycle at sub-G1 in dose dependent manner | significant increased | Apoptosis induction was observed | reduction of pro-caspase 9 | induces apoptosis via a dose-dependent manner | dose-dependent activation of caspase-9 and cleavage of PARP | 
CCCCC/C=C\C[C@@H](O)/C=C/c1cccc(C[C@@H](O)CCCCO)n1 [U75302] |  | not effect |  |  |  |  | did not affect on caspase-9 activation and PARP cleavage | no significant change
